Our source for the TGI and GI50 values is PubChem BioAssay (NCI).

Among the test systems are A549 NSCLC; ACHN renal; COLO 205 colon; M14 melanoma; OVCAR-8 ovarian; SK-OV-3 ovarian; UACC-257 melanoma.
What all share (test): DTP human tumour cell line panel, 48 h

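Results reflect a 48-hour exposure of cells in 96-well plates to compound at five concentrations. Here, GI50 denotes the concentration required for 50% inhibition of growth. TGI denotes the concentration required for complete inhibition of growth.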

As to `Cc1cc(Br)cc(C)c1NC(=O)C(=O)CC(=O)c1sc(-n2nc(-c3ccccc3)cc2-c2ccccc2)nc1C`, the total growth inhibition concentration (TGI) with A549 NSCLC, in the experiment on ACHN renal, with COLO 205 colon, in the experiment with M14 melanoma, in the experiment with OVCAR-8 ovarian and in the experiment with SK-OV-3 ovarian was > 100 µM each time. Further, in the experiment with UACC-257 melanoma, the concentration for total growth inhibition (TGI) is > 100 µM.

Take `O=[N+]([O-])c1ccc(-c2ccc(/C=N/n3c(-c4ccc(Cl)cc4)n[nH]c3=S)o2)cc1`: the TGI was > 64.6 µM in the experiment on A549 NSCLC; > 60.8 µM with ACHN renal; > 75.5 µM with COLO 205 colon; 32.3 µM in the experiment on M14 melanoma; > 100 µM in the experiment with OVCAR-8 ovarian; > 100 µM with SK-OV-3 ovarian. In addition, in the experiment with UACC-257 melanoma, the TGI was > 100 µM.

Take `N[C@H]1C2C3CC4C5CC(C42)C1(c1ccccc1)C53` (some centres not stated): the TGI with A549 NSCLC, with ACHN renal, in the experiment on COLO 205 colon, in the experiment with M14 melanoma, with OVCAR-8 ovarian and in the experiment with SK-OV-3 ovarian was > 100 µM throughout.

As to `O=S(=O)(O)CS(=O)(=O)OCCCl`, the TGI with A549 NSCLC, in the experiment with ACHN renal, in the experiment with COLO 205 colon, in the experiment with M14 melanoma, with OVCAR-8 ovarian and with SK-OV-3 ovarian was > 100 µM in each case. Besides, the TGI in the experiment on UACC-257 melanoma is > 100 µM.

For `CCOC(=O)/C(C1=N[C@H](C(=O)OCC)CS1)=C(\C)O`, the TGI in the experiment with A549 NSCLC, with ACHN renal, in the experiment on COLO 205 colon, in the experiment with M14 melanoma, in the experiment with OVCAR-8 ovarian and in the experiment on UACC-257 melanoma was > 100 µM in each case.

In the case of `CC(=O)Oc1c(C)n(CCCl)ccc1=O`, the TGI in the experiment on A549 NSCLC, in the experiment on ACHN renal, in the experiment on COLO 205 colon, in the experiment with M14 melanoma, with OVCAR-8 ovarian and with SK-OV-3 ovarian was > 100 µM throughout. Further, in the experiment with UACC-257 melanoma, the TGI is > 100 µM.

Take `CCOC(=O)C1C=C2O[C@@H]3OC4(CCCCC4)O[C@@H]3C2[C@H]2C(=O)C=CC(=O)[C@@]12C(=O)OC` (some centres not stated): the TGI with A549 NSCLC was 33.1 µM; in the experiment with ACHN renal it was 32.2 µM; with COLO 205 colon it was 22.4 µM; with M14 melanoma, 30.1 µM; in the experiment on OVCAR-8 ovarian it was 13.9 µM; in the experiment on SK-OV-3 ovarian, 32.2 µM. In addition, the TGI with UACC-257 melanoma turned out to be 30.8 µM.

With `CC1=C(C(=O)Nc2ccc([N+](=O)[O-])cc2)C(c2ccco2)C(C(=O)Nc2ccc([N+](=O)[O-])cc2)=C(C)N1`, the TGI in the experiment on A549 NSCLC was > 100 µM; with ACHN renal, 53.4 µM; with COLO 205 colon it was 51.1 µM; with M14 melanoma, > 100 µM; with OVCAR-8 ovarian it was > 100 µM; in the experiment on SK-OV-3 ovarian, 62.9 µM. In the experiment with UACC-257 melanoma, the TGI was found to be 98.5 µM.

With `CCCCN(CCCC)C(=O)C(=O)CC(=O)c1ccc(Br)cc1`, the TGI in the experiment with A549 NSCLC, in the experiment with ACHN renal, in the experiment with COLO 205 colon, with M14 melanoma, with OVCAR-8 ovarian and with SK-OV-3 ovarian was > 100 µM each time. In addition, in the experiment on UACC-257 melanoma, the TGI was > 100 µM.

Turning to `O=C1C2=C(c3ccccc31)C(c1ccc(Cl)cc1)N1C(=O)CCSC1=N2` (configuration not stated), the TGI in the experiment on A549 NSCLC, in the experiment with ACHN renal, in the experiment on COLO 205 colon, in the experiment on M14 melanoma, in the experiment with SK-OV-3 ovarian and with UACC-257 melanoma was > 100 µM throughout.

`O=C(O)CN(c1ccc(Cl)cc1)S(=O)(=O)c1ccccc1`: the TGI in the experiment on A549 NSCLC, in the experiment on ACHN renal, in the experiment on COLO 205 colon, with M14 melanoma, with OVCAR-8 ovarian and in the experiment with SK-OV-3 ovarian was > 100 µM throughout. Further, the TGI with UACC-257 melanoma was > 100 µM.

Consider `COC1C=C(Nc2cccc(Cl)c2)C(=O)C1` (configuration not stated), for which the TGI in the experiment on A549 NSCLC is 41.2 µM; with ACHN renal, > 100 µM; in the experiment with COLO 205 colon it was 22.1 µM; in the experiment on M14 melanoma, > 100 µM; in the experiment on OVCAR-8 ovarian, > 100 µM; with SK-OV-3 ovarian it was > 100 µM. Also, the TGI with UACC-257 melanoma is > 100 µM.

On to `Cn1nc(-c2ccccc2NC(=O)C(F)(F)F)c(=O)n(C)c1=S`, for which the TGI was > 100 µM in the experiment with A549 NSCLC; 77.5 µM with ACHN renal; 45 µM in the experiment on M14 melanoma; 67.7 µM in the experiment on OVCAR-8 ovarian; > 100 µM in the experiment on SK-OV-3 ovarian.

With `CC1=C(C(=O)Nc2ccccc2)C(c2ccc3c(c2)OCO3)C(C(=O)Nc2ccccc2)=C(C)N1`, the TGI in the experiment on A549 NSCLC, with ACHN renal, in the experiment with COLO 205 colon, in the experiment on M14 melanoma, with OVCAR-8 ovarian and in the experiment with SK-OV-3 ovarian was > 100 µM throughout. Also, the TGI in the experiment with UACC-257 melanoma is > 100 µM.

As for `Cc1cc(C)nc(NS(=O)(=O)c2ccc(Nc3c4ccccc4nc4c(C(=O)Nc5ccc(S(N)(=O)=O)cc5)cccc34)cc2)n1`, the TGI is > 100 µM in the experiment with A549 NSCLC; > 100 µM with ACHN renal; > 100 µM in the experiment on COLO 205 colon; > 100 µM in the experiment with M14 melanoma; > 100 µM with OVCAR-8 ovarian; 75.5 µM in the experiment with SK-OV-3 ovarian. In addition, the TGI with UACC-257 melanoma was > 100 µM.

On to `C=C(c1ccccc1N)[C@@]1(O)C[C@H](/C(=C\C)CO)C[C@@H]1NCc1ccccc1`, for which the concentration for total growth inhibition (TGI) with A549 NSCLC was > 100 µM; in the experiment on ACHN renal, > 100 µM; in the experiment on COLO 205 colon, 33 µM; with M14 melanoma, 28.5 µM; with OVCAR-8 ovarian it was 53.2 µM; with SK-OV-3 ovarian it was 73.7 µM. In addition, the TGI in the experiment with UACC-257 melanoma worked out at 32.3 µM.

As to `COc1c(OC(C)=O)ccc(/C=C2\N=C(C)OC2=O)c1[N+](=O)[O-]`, the TGI with A549 NSCLC, in the experiment with ACHN renal, with COLO 205 colon, with M14 melanoma, with OVCAR-8 ovarian and in the experiment with SK-OV-3 ovarian was > 100 µM in each case. For the same molecule, the TGI in the experiment on UACC-257 melanoma was > 100 µM.

Regarding `NC(N)=NS(=O)(=O)c1ccc(NC(=O)c2cccc3c(Nc4ccc(S(=O)(=O)N=C(N)N)cc4)c4ccc(Cl)cc4nc23)cc1`, the TGI with A549 NSCLC, in the experiment on ACHN renal, in the experiment with COLO 205 colon, with M14 melanoma, with OVCAR-8 ovarian and with SK-OV-3 ovarian was > 100 µM throughout. In the experiment on UACC-257 melanoma, the concentration for total growth inhibition (TGI) was > 100 µM.

Regarding `O=C1C2=C(c3ccccc31)C(c1cccc(Cl)c1)NC(=S)N2` (configuration not stated), the TGI in the experiment with A549 NSCLC, in the experiment with ACHN renal, in the experiment on COLO 205 colon, with M14 melanoma, in the experiment with OVCAR-8 ovarian and in the experiment with SK-OV-3 ovarian was > 100 µM in each case. In the experiment on UACC-257 melanoma, the TGI was > 100 µM.

`O/N=C1/C(=C/c2ccc(F)cc2)CCCC1C(NO)c1ccc(F)cc1` (configuration not stated): the concentration for total growth inhibition (TGI) with A549 NSCLC, in the experiment on ACHN renal, with COLO 205 colon, with M14 melanoma, in the experiment with OVCAR-8 ovarian and in the experiment with SK-OV-3 ovarian was > 100 µM each time. This molecule also had a TGI in the experiment with UACC-257 melanoma of 64.5 µM.

`Cc1c(NC(=O)C(=O)N=NC(=O)c2ccncc2)c(O)c2ccccc2c1O`: the TGI with A549 NSCLC was 30.2 µM; in the experiment on ACHN renal, 29.6 µM; with COLO 205 colon, 32.3 µM; with M14 melanoma, 22.7 µM; in the experiment on OVCAR-8 ovarian, 52.1 µM; in the experiment with SK-OV-3 ovarian, > 88.9 µM. For the same molecule, the TGI with UACC-257 melanoma came to 24.2 µM.

`CCOC(=O)c1cccc(=O)c(C(=O)OCC)c1`: the TGI in the experiment on A549 NSCLC, in the experiment with ACHN renal, with M14 melanoma, in the experiment on OVCAR-8 ovarian, with SK-OV-3 ovarian and in the experiment with UACC-257 melanoma was > 100 µM each time.

In the case of `COc1ccc(-c2oc3cc(O)c(OC)c(O)c3c(=O)c2OC2OC(CO)C(O)C(O)C2O)cc1` (configuration not stated), the TGI in the experiment with A549 NSCLC, with ACHN renal, with COLO 205 colon, with M14 melanoma, in the experiment on OVCAR-8 ovarian and with SK-OV-3 ovarian was > 100 µM in each case.

For the molecule `CC(=O)[CH-]C(=O)c1ccccc1.CC(=O)[CH-]C(=O)c1ccccc1.CCN(CC)CC[O-].CCN(CC)CC[O-].Cl.[Ti+4]`, the GI50 was 27.9 µM in the experiment on A549 NSCLC; 39.5 µM with ACHN renal; 22.5 µM in the experiment with M14 melanoma; 38.8 µM with OVCAR-8 ovarian; 32.6 µM in the experiment with SK-OV-3 ovarian; 24.3 µM in the experiment on UACC-257 melanoma. Moreover, the concentration for total growth inhibition (TGI) in the experiment on A549 NSCLC is 98.6 µM; in the experiment with ACHN renal it was > 100 µM; in the experiment with M14 melanoma it was 45.9 µM; in the experiment with OVCAR-8 ovarian it was > 100 µM; with SK-OV-3 ovarian, > 100 µM; with UACC-257 melanoma, 96.1 µM.

Turning to `CCOC(=O)Cc1c(Cc2[nH]c(C(=O)OCc3ccccc3)c(CC(=O)OCC)c2CC(=O)OCC)[nH]c(C(=O)OCc2ccccc2)c1CC(=O)OCC`, the TGI in the experiment with A549 NSCLC, in the experiment with ACHN renal, in the experiment on COLO 205 colon, in the experiment on M14 melanoma, in the experiment with OVCAR-8 ovarian and in the experiment on SK-OV-3 ovarian was > 100 µM in each case.

The TGI is the concentration giving total growth inhibition. Broadly, the GI50 is the concentration giving 50% growth inhibition.
